Patent US20210145801A1, “THERAPY FOR PROTEIN MISFOLDING DISEASE” (WREN THERAPEUTICS LIMITED, priority 2018, published 2021)
“Also recorded” adds a separate entry of the source.

Key:
Aβ42 [1] = molecular target: T1, Aβ42 (Homo sapiens, UniProt P05067); assay: Seeded Aβ42 aggregation kinetics (2% or 50% preformed fibril seeds); assay type: biochemical; conditions: 2 μM Aβ42; 50% seeds; up to 20-fold excess
T1 construct: made in house; host or cells: E. coli BL21 Gold (DE3)
Experimental: For the seeded experiments, preformed fibrils were prepared just prior to the experiment. Kinetic experiments were set up as described above for 5 μM Aβ42 samples in 20 mM sodium phosphate buffer, pH 8 with […] EDTA, 0.02% NaN3 and 20 μM ThT. The ThT fluorescence was monitored for 3 hours to verify the formation of fibrils. Samples were then collected from the wells into low-binding tubes. Under the considered conditions (i.e. 5 μM Aβ42), the monomer concentration is negligible at equilibrium. The final concentration of fibrils, in monomer equivalents, was considered equal to the initial concentration of monomer. Fibrils were then added to freshly prepared monomer in order to reach either 2% or 50% final concentration of seeds in the absence or the presence of Netoglitazone.
Inhibitors can interfere with the aggregation process by inhibiting one or more of the individual microscopic steps. […]

[2] = system: ROS production in AD worms; assay: ROS production (ROS-Glo H2O2 assay) in AD worms; assay type: in vivo, C. elegans; conditions: 5 μM administered at L4; D5 of adulthood
Experimental: ROS-Glo™ H2O2 cell kit assay was used (Promega, Fitchburg, Wis., USA) and adapted for C. elegans studies. The ROS-Glo™ H2O2 Assay is a bioluminescent assay that measures the level of H2O2, a reactive oxygen species (ROS), directly in cell culture or tissue or in defined enzyme reactions. A derivatized luciferin substrate is incubated with sample and reacts directly with H2O2 to generate a luciferin precursor. Worms treated with 5 μM Netoglitazone in 1% DMSO or 1% DMSO only were washed using M9 buffer out the NGM plates. The buffer was then changed 3 times to remove the excess bacteria. Worm pellets were then divided in three wells and 80 μl of worm pellet (around 200 worms/well) was incubated for 6 h at RT with 20 μl of a ROS Substrate Solution (Promega, Fitchburg, Wis., USA); mild shaking at 300 rpm was used to avoid worm sedimentation; afterwards, worms were incubated for ca. 20 min with 100 μl of the detection solution; luminescence was then measured with a Clariostar (BMG Labtech, Aylesbury, UK).

Aβ42 [3] = molecular target: T1, Aβ42; assay: ThT kinetic assay of Aβ42 aggregation (unseeded); assay type: biochemical
Description: The recombinant Aβ(M1-42) peptide ([…]-SNKGAIIGLMVGGVVIA [SEQ ID NO: 1]), here called Aβ42, was expressed in the E. coli BL21 Gold (DE3) strain (Stratagene, Calif., U.S.A.) and purified as described previously with slight modifications. Briefly, the purification procedure involved sonication of E. coli cells, dissolution of inclusion bodies in 8 M urea, and ion exchange in batch mode on diethylaminoethyl cellulose resin and lyophylization. The lyophilized fractions were further purified using Superdex 75 HR 26/60 column (GE Healthcare, Buckinghamshire, U.K.) and eluates were analyzed using SDS-PAGE for the presence of the desired protein product. The fractions containing the recombinant protein were combined, frozen using liquid nitrogen, and lyophilized again.
Except for Netoglitazone, which was custom synthesised by GVK BIO, all small molecules were purchased with a purity greater than 99%. Small molecules were first solubilized in 100% DMSO to a concentration of 5 mM, and then diluted in the peptide solution to reach a final DMSO concentration of maximum 1-3%. We verified that the addition of DMSO in the reaction mixture has no effect on Aβ42 aggregation.
Solutions of monomeric peptides were prepared by dissolving the lyophilized Aβ42 peptide in 6 M GuHCl. Monomeric forms were purified from potential oligomeric species and salt using a Superdex 75 10/300 GL column (GE Healthcare) at a flowrate of 0.5 mL/min, and were eluted in 20 mM sodium phosphate buffer, pH 8 supplemented with 200 μM EDTA and 0.02% NaN3. The centre of the peak was collected, and the peptide concentration was determined from the absorbance of the integrated peak area using ε280=1490 L mol^−1 cm^−1. The obtained monomer was diluted with buffer to the desired concentration and supplemented with 20 μM Thioflavin T (ThT) from a 1 mM stock. All samples were prepared in low binding Eppendorf tubes on ice using careful pipetting to avoid introduction of air bubbles. Each sample was then pipetted into multiple wells of a 96-well half-area, low-binding, clear bottom and PEG coating plate (Corning 3881), 80 μL per well. Aβ42 kinetics have been performed in the absence or the presence of Netoglitazone, Mitoglitazone, Rosiglotazone, Rivoglitazone, Pioglitazone, Ciglitazone, Englitazone, Darglitazone, Troglitazone and Balaglitazone.
The time evolution of the total fibril mass concentration is described as a function only of the initial conditions and the rate constants of the system by the integrated rate law given by Eq. (54) in Cohen et al., J Chem Phys 135, 065106, 2011.
These are related to the rate of formation of new aggregates through primary pathways λ=√{square root over (2k+knm(0)^n^c)} and through secondary pathways κ=√{square root over (2k+k2m(0)^n^2^+1)}, where the initial concentration of soluble monomers is denoted by m(0), nc and n2 describe the dependencies of the primary and secondary pathways on the monomer concentration (nc=n2=2 for Aβ42), and kn, k+ and k2 are the rate constants of the primary nucleation, elongation and secondary nucleation, respectively (Cohen et al., Proc Natl Acad Sci USA, 110(24), 9758-63, 2013).
Inhibitors can interfere with the aggregation process by inhibiting one or more of the individual microscopic steps.

T1 sequence (P05067 671-713): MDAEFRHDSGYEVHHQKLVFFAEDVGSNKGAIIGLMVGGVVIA

Q: Which “Effect on aggregation kinetics / elongation (k+) with 50% preformed seeds” value (Aβ42 [1]) does the source give for `O=C1NC(=O)C(Cc2ccc3cc(OCc4ccccc4F)ccc3c2)S1` (stereo not shown) [Netoglitazone] here?
A: Its value is “did not affect the aggregation kinetics; also recorded: does not affect the elongation rates of Aβ42 aggregation”.

Q: What about the “ROS production / levels of oxidative species in AD worms” value [2] of the same molecule?
A: The value was “significantly decreased the levels of oxidative species; also recorded: restores the ROS production in AD worms to normal levels”.

Q: And the “Effect on rate constants of primary (knk+) and secondary (k2k+) pathways” value (Aβ42 [3]; 2 μM Aβ42, unseeded, fit of rate laws)?
A: Its value is “can affect both nucleation pathways in Aβ42 aggregation to different extents”.

Q: What about the “Delay of Aβ42 aggregation (ThT fibril formation)” value (Aβ42 [3]; 2 μM Aβ42, range of Netoglitazone concentrations) of the same molecule?
A: Its value is “substantial delay in Aβ42 aggregation was observed in a concentration-dependent manner”.
